Tests used:
[1] = human gut metagenome, 24 h, 2 µM
[2] = human gut metagenome, 24 h, 2 µM; remark: listed apart in the source
[3] = human gut metagenome, 24 h, 2 µM; remark: listed apart in the source
[4] = The drug is tested on Z-005 corresponding to metagenome with ENA study accession number: PRJEB37062 and ENA sample accession number: ERS12561805 for biotransformation under anaerobic condition. The drug concentrations were measured over 9 timepoints collected between 0 and 24 hours of incubation by liquid-chromatography-coupled mass spectrometry (LC–MS); conditions: 2 µM
[5] = The drug is tested on Z-027 corresponding to metagenome with ENA study accession number: PRJEB37062 and ENA sample accession number: ERS12561826 for biotransformation under anaerobic condition. The drug concentrations were measured over 9 timepoints collected between 0 and 24 hours of incubation by liquid-chromatography-coupled mass spectrometry (LC–MS); conditions: 2 µM
[6] = human gut metagenome, 24 h, 2 µM; remark: listed apart in the source
[7] = The drug is tested on WLS-082 corresponding to human gut metagenome with ENA study accession number: PRJEB37062 and ENA sample accession number: ERS12561751 for biotransformation under anaerobic condition. The drug concentrations were measured over 9 timepoints collected between 0 and 24 hours of incubation by liquid-chromatography-coupled mass spectrometry (LC–MS); conditions: 2 µM
[8] = human gut metagenome, 24 h, 2 µM; remark: listed apart in the source
[9] = The drug is tested on Z-004 corresponding to metagenome with ENA study accession number: PRJEB37062 and ENA sample accession number: ERS12561804 for biotransformation under anaerobic condition. The drug concentrations were measured over 9 timepoints collected between 0 and 24 hours of incubation by liquid-chromatography-coupled mass spectrometry (LC–MS); conditions: 2 µM
[10] = The drug is tested on WLS-007 corresponding to human gut metagenome with ENA study accession number: PRJEB37062 and ENA sample accession number: ERS12561742 for biotransformation under anaerobic condition. The drug concentrations were measured over 9 timepoints collected between 0 and 24 hours of incubation by liquid-chromatography-coupled mass spectrometry (LC–MS); conditions: 2 µM
[11] = human gut metagenome, 24 h, 2 µM; remark: listed apart in the source
[12] = The drug is tested on Z-021 corresponding to metagenome with ENA study accession number: PRJEB37062 and ENA sample accession number: ERS12561820 for biotransformation under anaerobic condition. The drug concentrations were measured over 9 timepoints collected between 0 and 24 hours of incubation by liquid-chromatography-coupled mass spectrometry (LC–MS); conditions: 2 µM
[13] = The drug is tested on Z-016 corresponding to mouse gut metagenome with ENA study accession number: PRJEB37062 and ENA sample accession number: ERS12561815 for biotransformation under anaerobic condition. The drug concentrations were measured over 9 timepoints collected between 0 and 24 hours of incubation by liquid-chromatography-coupled mass spectrometry (LC–MS); conditions: 2 µM
[14] = The drug is tested on WLS-027 corresponding to human gut metagenome with ENA study accession number: PRJEB37062 and ENA sample accession number: ERS12561744 for biotransformation under anaerobic condition. The drug concentrations were measured over 9 timepoints collected between 0 and 24 hours of incubation by liquid-chromatography-coupled mass spectrometry (LC–MS); conditions: 2 µM
[15] = human gut metagenome, 24 h, 2 µM; remark: listed apart in the source
[16] = The drug is tested on WLS-350 corresponding to human gut metagenome with ENA study accession number: PRJEB37062 and ENA sample accession number: ERS12561789 for biotransformation under anaerobic condition. The drug concentrations were measured over 9 timepoints collected between 0 and 24 hours of incubation by liquid-chromatography-coupled mass spectrometry (LC–MS); conditions: 2 µM
[17] = human gut metagenome, 24 h, 2 µM; remark: listed apart in the source
[18] = human gut metagenome, 24 h, 2 µM; remark: listed apart in the source
[19] = human gut metagenome, 24 h, 2 µM; remark: listed apart in the source
[20] = human gut metagenome, 24 h, 2 µM; remark: listed apart in the source
Further: call rule not given here.

Compound | Bacterial Biotransformation [1] | Bacterial Biotransformation [2] | Bacterial Biotransformation [3] | Bacterial Biotransformation [4] | Bacterial Biotransformation [5] | Bacterial Biotransformation [6] | Bacterial Biotransformation [7] | Bacterial Biotransformation [8] | Bacterial Biotransformation [9] | Bacterial Biotransformation [10] | Bacterial Biotransformation [11] | Bacterial Biotransformation [12] | Bacterial Biotransformation [13] | Bacterial Biotransformation [14] | Bacterial Biotransformation [15] | Bacterial Biotransformation [16] | Bacterial Biotransformation [17] | Bacterial Biotransformation [18] | Bacterial Biotransformation [19] | Bacterial Biotransformation [20]
Cc1cc(C)cc(OCC2CNC(=O)O2)c1 (stereo not given) [METAXALONE] | Compound metabolized | Compound metabolized | Compound metabolized | Compound NOT metabolized | Compound metabolized | Compound metabolized | Compound metabolized | Compound NOT metabolized | Compound NOT metabolized | Compound metabolized | Compound NOT metabolized | Compound NOT metabolized | Compound NOT metabolized | Compound metabolized | Compound metabolized | Compound metabolized | Compound metabolized | Compound NOT metabolized | Compound metabolized | Compound metabolized
COC(=O)C(c1ccccc1)C1CCCCN1 (stereo not given) [METHYLPHENIDATE] | Compound NOT metabolized | Compound NOT metabolized | Compound NOT metabolized | Compound NOT metabolized | Compound NOT metabolized | Compound NOT metabolized | Compound NOT metabolized | Compound NOT metabolized | Compound metabolized | Compound NOT metabolized | Compound NOT metabolized | Compound metabolized | Compound NOT metabolized | Compound metabolized | Compound NOT metabolized | Compound NOT metabolized | Compound NOT metabolized | Compound NOT metabolized | Compound metabolized | Compound metabolized
CN1CCN2c3ccccc3Cc3ccccc3C2C1 (stereo not given) [MIANSERIN] | Compound NOT metabolized | Compound metabolized | Compound NOT metabolized | Compound NOT metabolized | Compound NOT metabolized | Compound NOT metabolized | Compound NOT metabolized | Compound NOT metabolized | Compound NOT metabolized | Compound NOT metabolized | Compound NOT metabolized | Compound metabolized | Compound NOT metabolized | Compound NOT metabolized | Compound NOT metabolized | Compound NOT metabolized | Compound metabolized | Compound metabolized | Compound metabolized | Compound metabolized
CC#C[C@]1(O)CC[C@H]2[C@@H]3CCC4=CC(=O)CCC4=C3[C@@H](c3ccc(N(C)C)cc3)C[C@@]21C [MIFEPRISTONE] | Compound metabolized | Compound metabolized | Compound metabolized | Compound metabolized | Compound NOT metabolized | Compound NOT metabolized | Compound metabolized | Compound NOT metabolized | Compound NOT metabolized | Compound metabolized | Compound NOT metabolized | Compound NOT metabolized | Compound metabolized | Compound metabolized | Compound NOT metabolized | Compound NOT metabolized | Compound NOT metabolized | Compound NOT metabolized | Compound metabolized | Compound metabolized
CC(C)(C)NCC(O)COc1cccc2c1CC(O)C(O)C2 (stereo not given) [NADOLOL] | Compound NOT metabolized | Compound metabolized | Compound NOT metabolized | Compound NOT metabolized | Compound NOT metabolized | Compound NOT metabolized | Compound NOT metabolized | Compound NOT metabolized | Compound NOT metabolized | Compound NOT metabolized | Compound NOT metabolized | Compound NOT metabolized | Compound NOT metabolized | Compound NOT metabolized | Compound NOT metabolized | Compound metabolized | Compound NOT metabolized | Compound NOT metabolized | Compound metabolized | Compound metabolized
CC(C)[C@H]1CC[C@H](C(=O)N[C@H](Cc2ccccc2)C(=O)O)CC1 [NATEGLINIDE] | Compound metabolized | Compound metabolized | Compound metabolized | Compound NOT metabolized | Compound metabolized | Compound metabolized | Compound metabolized | Compound metabolized | Compound NOT metabolized | Compound metabolized | Compound metabolized | Compound metabolized | Compound metabolized | Compound metabolized | Compound metabolized | Compound metabolized | Compound metabolized | Compound metabolized | Compound metabolized | Compound metabolized

Source: ChEMBL document CHEMBL5724914, “Linking interpersonal differences in gut microbiota composition and drug biotransformation activity” (2024)
